For the data set the following is noted: 101.33 kPa, Liquid.

± gives the expanded uncertainty stated by the source.

Six molecules from the NIST ThermoML archive (doi:10.1016/j.fluid.2008.01.007) can be followed below.

Turning to `CCCCCCCCC` [nonane], for the setting “293.15 K”, the mass density (commonly the mass of a sample divided by its volume) was 718.418 ± 0.96 kg/m3.

`c1ccccc1` [benzene]: the mass density (298.15 K) is given as 873.945 ± 0.64 kg/m3.

Turning to `Cc1ccccc1` [toluene], the mass density (298.15 K) stood at 864.989 ± 0.18 kg/m3.

For the molecule `CCCCn1cc[n+](C)c1.F[P-](F)(F)(F)(F)F` [1-butyl-3-methylimidazolium hexafluorophosphate], the mass density (293.15 K, Vibrating tube method) turned out to be 1380.33 ± 13 kg/m3.

With `CCCCCCCCCCC` [undecane], the mass density (298.15 K) was determined as 740.289 ± 0.92 kg/m3.

With `Cc1cccc(C)c1` [1,3-dimethylbenzene], the mass density (293.15 K) was 868.124 ± 0.65 kg/m3.
